Measurements: patent US20190169134A1, “NOVEL CLASS OF QUINOLONE HETEROCYCLIC AROMATIC MOLECULES FOR CANCER TREATMENT” (RenoTarget Therapeutics, Inc., priority 2016, published 2019)

Key:
[1] = target: T1, MLK2 (Homo sapiens, UniProt Q02779); experiment: KinaseSeeker competition binding assay
T1 construct: made in house; host or cells: cell-free, rabbit reticulocyte lysate
Experimental: (§1) Compound Reno647 was profiled against the following panel of kinases at 2 μM using the KinaseSeeker™ assay: ABL1, AKT1, AKT2, AKT3, ALK, AURKA, AXL, BRAF, BTK, CDK2, CDK5, CDK7, CDK8, CSF1R, DDR1, EGFR del L747-P753 InsS, EGFR (L861Q), EGFR (G719S), EGFR, EGFR (L858R), EPHA2, EPHB2, FGFR3, FLT1/VEGFR1, FLT2/FGFR1, FLT3, FLT4/VEGFR3, GSK-3a, HER2, IGF1R, INSR, KIT, LIMK1, MET, MLK2/MAP3K10, RPS6KA5/MSK1, MUSK, p38a/MAPK12, PDGFRA, PDGFRB, PDK1, RET, RIPK2, RPS6KA1/RSK1, SRC, TEC, TESK1, TRKB, VEGFR2, and YES 1.
(§2) KinaseSeeker is a homogeneous competition binding assay where the displacement of an active site dependent probe by an inhibitor is measured by a change in luminescence signal (see FIG. 7). Luminescence readout translates into a highly sensitive and robust assay with low background and minimal interference from test compounds.
(§3) (Jester, Cox et al. 2010; Jester, Gaj et al. 2012): 10 mM stock of compound Reno647 was diluted in DMSO to a concentration of 50 μM. Prior to initiating a profiling campaign, the compound was evaluated for false positive against split-luciferase. The compound was then screened in duplicate against each of the kinases. For kinase assays, each Cfluc-Kinase was translated along with Fos-Nfluc using a cell-free system (rabbit reticulocyte lysate) at 30° C. for 90 min. A 24 μL aliquot of this lysate containing either 1 μL of DMSO (for no-inhibitor control) or compound solution in DMSO (2 LM final concentration) was incubated for 30 minutes at room temperature followed by 1 hour in the presence of a kinase specific probe. A 80 μL of luciferin assay reagent was added to each solution and luminescence was immediately measured on a luminometer.
(§4) The % Inhibition and % Activity Remaining were calculated using the following equations:
(§5) % inhibition=(ALUcontrol−ALUsample)×100
(§6) % activity=100−% inhibition.

[2] = target: T2, IGF1R (Homo sapiens, UniProt P08069); experiment: KinaseSeeker competition binding assay
T2 construct: made in house; host or cells: cell-free, rabbit reticulocyte lysate
Experimental: as §1, §2, §3, §4, §5, §6

[3] = system: HCC827TR16; experiment: Cell growth inhibition by SRB method; format: cell-based; conditions: Homo sapiens, Tarceva-resistant line, 72 hrs exposure
Text: (§7) Six human cancer cell lines have been used to evaluate effects of the compounds on proliferation of cancer cells. These cell lines include HCC827-P (or HCC827 parent cells), human non-small lung cancer cells, Parent NSCLC HCC827 cell line (which harbors EGFR gene amplification, Exon 19 (E19) deletion, and Exon 21 mutation (Wang, Ramakrishnan et al. 2010), and is an EGFRi sensitive cell line (Kim, Kim et al. 2010)); HCC827-TR16 (Tarceva-resistant HCC727 cell line), HCC827-OR16 (AZD9291-resistant HCC727 cell line), LNCaP (human prostate cancer cells—a hormonal-therapy sensitive cell line (Wang, Liu et al. 1997)); 22RV1 (human prostate cancer cells—a hormonal-therapy resistant cell line (Sramkoski, Pretlow et al. 1999)); and ACHN (human renal adenocarcinoma cells (Park, Jung et al. 2003)). LNCaP cells and 22RV1 cells were purchased from the American Type Culture Collection (Rockville, Md.) and others were gifts of friends.
(§8) To evaluate activities of new compounds on growth of EGFR-inhibitor-resistant cells, two EGFRi-resistant cell lines, i.e., HCC827-TR16 and HCC827-OR16 were established using a method described by Eberlein et al. (Eberlein, Stetson et al. 2015). […] Resistant cells were collected and stabilized after 5 weeks (cycle 5). […] The resistant cells were sorted using 96-well dishes by culturing cells with density of 0.1, 1, 10, and 100 cells per well.
(§9) All cell lines were maintained in RPMI-1640 (GIBCO, Gaithersburg, Md.) with 10% heat-inactivated bovine serum (FBS) (Wang, Ossowski et al. 2004).
(§10) Sulforhodamine B (SRB) was used to estimate cell growth as described previously (Skehan, Storeng et al. 1990). Briefly, cells grown exponentially were aliquoted into 96-well plates at a density of 2,500 to 5,000 cells/200 μl per well in RPMI 1640 medium containing 10% FBS. After twenty-four hours, the cells were exposed to indicated concentrations of tested compounds for 72 hrs or otherwise as indicated. The cells were then fixed with 10% trichloride acetic acid for 2 h at 4° C. The 10% trichloride acetic acid was removed, and the dishes were washed 5 times with tape water, and air-dried. The fixed and dried cells were then stained with 0.4% SRB in 1% acetic acid for 25 min, and the dishes were washed 5 times with 1% acetic acid and air-dried overnight. 200 μl of 10 mM of Tris buffer (pH 10.0) were added, and the dishes were rotated to completely dissolve the color. Absorbance at 570 nm, with a reference wavelength 690 nm, was measured on a 96-well microplate reader (SPECTRO Star^Nano, BMG Labtech). Mean, standard deviation (SD) and the percent of growth inhibition at each concentration point of the treatment were calculated. The percent of growth inhibition as defined as (1−T/C)×100 where T is the mean of the absorbance at 570 nm from the treatment, and C from control (drug vehicle only). IC50 was calculated using Sigma-plot software by regression of growth-concentration curve from each drug treatment.

[4] = system: tested cancer cell lines; experiment: Cell growth inhibition by SRB method, tested cancer cell lines overall; format: cell-based, human; conditions: data not provided
Text: as §7, §9, §10

[5] = system: HCC827 P cells; experiment: Western blot of EGFR downstream signaling; format: cell-based, human; conditions: 24 hrs
Experimental: The cells were washed with PBS, harvested and cellular proteins were extracted. […] Protein or phosphor-protein levels of pEGFRTyr1068, pEGFRTry845, pAktSer473, pStat3Tyr705, MEK1/2, pMEK1/2, p27, and pp70 S6 kinase 2 were determined by Western blot using specific antibodies. β-actin was used as loading control.
HCC827 P or other indicated cells at exponential growth phase were treated with indicated compounds for 24 hrs. The cells were washed with PBS, harvested and cellular proteins were extracted.

[6] = system: HCC827OR16; experiment: Cell growth inhibition by SRB method; format: cell-based, human; conditions: Homo sapiens, AZD9291-resistant line, 72 hrs exposure
Text: as §7, §8, §9, §10

[7] = system: HCC827P; experiment: Cell growth inhibition by SRB method; format: cell-based, human; conditions: Homo sapiens; 72 hrs exposure, SRB
Text: as §7, §8, §9, §10

[8] = system: LNCaP; experiment: Cell growth inhibition by SRB method; format: cell-based, human; conditions: Homo sapiens, LNCaP; 72 hrs exposure, SRB
Text: as §7, §9, §10

T2 sequence (P08069 31-1367): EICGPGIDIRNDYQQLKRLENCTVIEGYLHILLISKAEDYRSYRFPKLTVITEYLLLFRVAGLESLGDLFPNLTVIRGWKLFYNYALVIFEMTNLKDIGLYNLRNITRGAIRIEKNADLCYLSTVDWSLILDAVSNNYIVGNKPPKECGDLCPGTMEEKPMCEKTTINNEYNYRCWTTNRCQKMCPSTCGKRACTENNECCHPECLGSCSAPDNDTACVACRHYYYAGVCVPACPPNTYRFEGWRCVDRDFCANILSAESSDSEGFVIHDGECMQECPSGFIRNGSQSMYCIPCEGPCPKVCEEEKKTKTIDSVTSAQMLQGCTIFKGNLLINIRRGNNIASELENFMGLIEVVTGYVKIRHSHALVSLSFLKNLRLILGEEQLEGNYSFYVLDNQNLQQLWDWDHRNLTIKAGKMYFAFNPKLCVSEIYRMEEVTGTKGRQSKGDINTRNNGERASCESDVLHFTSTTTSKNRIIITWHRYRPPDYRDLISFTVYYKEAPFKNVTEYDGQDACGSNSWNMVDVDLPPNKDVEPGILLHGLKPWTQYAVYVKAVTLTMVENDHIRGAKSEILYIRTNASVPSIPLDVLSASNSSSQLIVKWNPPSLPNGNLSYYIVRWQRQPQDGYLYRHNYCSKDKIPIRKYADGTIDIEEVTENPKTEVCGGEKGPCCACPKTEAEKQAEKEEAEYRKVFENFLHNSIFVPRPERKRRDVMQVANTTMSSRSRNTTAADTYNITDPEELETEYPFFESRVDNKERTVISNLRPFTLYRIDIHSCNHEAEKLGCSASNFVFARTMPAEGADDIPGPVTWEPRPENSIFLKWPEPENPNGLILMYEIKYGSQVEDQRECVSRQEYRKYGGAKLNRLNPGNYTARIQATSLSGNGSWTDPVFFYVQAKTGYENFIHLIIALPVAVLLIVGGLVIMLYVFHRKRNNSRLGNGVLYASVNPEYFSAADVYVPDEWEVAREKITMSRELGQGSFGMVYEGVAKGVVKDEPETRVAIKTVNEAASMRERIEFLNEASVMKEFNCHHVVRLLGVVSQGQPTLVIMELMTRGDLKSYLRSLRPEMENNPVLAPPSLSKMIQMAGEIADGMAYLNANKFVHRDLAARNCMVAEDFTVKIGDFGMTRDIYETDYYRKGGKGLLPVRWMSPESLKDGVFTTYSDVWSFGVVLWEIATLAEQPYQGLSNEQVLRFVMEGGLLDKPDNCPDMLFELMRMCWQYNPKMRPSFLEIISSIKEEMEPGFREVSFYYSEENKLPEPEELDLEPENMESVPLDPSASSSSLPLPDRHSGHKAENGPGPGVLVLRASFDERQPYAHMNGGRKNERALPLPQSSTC
T1 sequence (Q02779 whole entry): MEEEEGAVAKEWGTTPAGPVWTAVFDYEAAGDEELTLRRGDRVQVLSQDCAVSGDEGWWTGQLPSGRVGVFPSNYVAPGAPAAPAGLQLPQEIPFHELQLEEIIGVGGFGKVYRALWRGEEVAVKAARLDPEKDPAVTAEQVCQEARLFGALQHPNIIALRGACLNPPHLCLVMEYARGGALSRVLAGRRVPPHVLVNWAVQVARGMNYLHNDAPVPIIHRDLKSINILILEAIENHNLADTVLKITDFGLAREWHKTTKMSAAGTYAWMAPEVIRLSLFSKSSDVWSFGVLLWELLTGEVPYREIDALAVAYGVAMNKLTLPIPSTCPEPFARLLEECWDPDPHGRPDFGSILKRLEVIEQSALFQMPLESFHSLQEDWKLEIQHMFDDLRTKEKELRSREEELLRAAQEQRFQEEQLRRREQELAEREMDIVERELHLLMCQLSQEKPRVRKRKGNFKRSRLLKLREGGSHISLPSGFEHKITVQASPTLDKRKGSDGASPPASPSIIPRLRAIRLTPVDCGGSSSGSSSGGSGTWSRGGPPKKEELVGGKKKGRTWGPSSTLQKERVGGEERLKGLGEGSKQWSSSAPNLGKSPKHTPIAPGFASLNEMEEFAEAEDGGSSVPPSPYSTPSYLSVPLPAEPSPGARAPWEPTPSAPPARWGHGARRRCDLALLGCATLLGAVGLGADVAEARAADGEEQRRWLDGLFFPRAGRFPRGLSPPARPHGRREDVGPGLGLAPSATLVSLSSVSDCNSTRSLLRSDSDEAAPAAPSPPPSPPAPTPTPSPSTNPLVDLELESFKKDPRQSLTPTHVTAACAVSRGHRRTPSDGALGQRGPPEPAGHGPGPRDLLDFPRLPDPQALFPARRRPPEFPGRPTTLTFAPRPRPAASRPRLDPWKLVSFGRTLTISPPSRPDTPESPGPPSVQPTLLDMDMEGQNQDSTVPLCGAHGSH

C#Cc1cccc(Nc2ncnc3cc(OCCOC)c(NC(=O)c4ccc(F)c([N+](=O)[O-])c4)cc23)c1 [Reno647, 4-Fluoro-N-[4-(3-ethynyl-phenylamino)-7-(2-methoxy-ethoxy)-quinazolin-6-yl]-3-nitro-benzamide]
remaining binding at 2 µM [1]: 99.7%
remaining binding at 2 µM [2]: 95.5%
IC50 [3]: 1300 nM
activities against all tested cancer cells lines compared with NK-2206 and MLN8237 [4]: better activities
Phospho-Akt level [5]: significantly reduced
level of pEGFRTyr845 [5]: significantly decreased
level of pEGFRTyr1068 [5]: significantly decreased
level of pERK1/2 (Ras/Raf/MEK pathway) [5]: significant decrease
p27 level [5]: induction
pp-70-6S activity (p70-S6 activation) [5]: significant decreases
total MEK1/2 protein level [5]: no changes
IC50 [6]: 380 nM
IC50 [7]: 150 nM
IC50 [8]: 1250 nM
